Assay results: patent US12662485B2, “Substituted pyrazolo[4,3-D]pyrimidines as gut-targeted phosphodiesterase inhibitors” (priority 2020, dated 2026)

Columns and labels:
[1] = mouse, in vivo
colon epithelium = experiment: Epithelial proliferation in the colon by flow cytometry using Ki67; assay type: in vivo; conditions: mice, drug in drinking water 8 days; control 21%
Protocol: Toxicity studies and histology. […] The body weight was measured daily. After 8 days the animals were sacrificed and the epithelial proliferation in the colon was measured by flow cytometry using Ki67. Box plots show median and whiskers are min and max values. The p values were generated using a one-way ANOVA with Dunnett's multiple comparisons test. For FIGS. 5A and 5C, n=5.

PDE5 = molecular target: T1, PDE5 (Homo sapiens, UniProt O76074); experiment: Reporter cell assay: LS-174T cells expressing PKG2 and PDE5, low-dose linaclotide, phospho-VASP Western blot; assay type: cell-based; conditions: LS-174T reporter cells
T1 construct: host or cells: LS-174T colon cancer reporter cell line
Text: Results shown are representative of at least 3 independent experiments.
Western blot and reporter cell lines. […] Results shown are representative of at least 3 independent experiments.

## CCCc1nn(C)c2c(=O)[nH]c(-c3cc(S(=O)(=O)N4CCNCC4)ccc3OCC)nc12 [desmethyl-sildenafil, reference compound]
[1]
  entry from the gut into plasma, dose curve: increased dramatically in the plasma

## CCCc1nn(C)c2c(=O)[nH]c(-c3cc(S(=O)(=O)N4CCN(C)CC4)ccc3OCC)nc12 [sildenafil, reference compound]
Colon epithelium
  total Ki67 positive cells in colon epithelium: 15%

## acetyl-sildenafil
PDE5
  potency of PDE5 inhibitor activity relative to sildenafil (VASP phosphorylation): equally potent as the parent compound
